Calls of active or inactive are those of the source. For most assays here, no stated cut-off is given here; in the data, actives have a measured Kd and inactives only a lower limit.
Columns and labels:
[1] = target: T1, MAP kinase-activated protein kinase 5 (Homo sapiens, UniProt Q8IW41)
T1 sequence (Q8IW41 whole entry): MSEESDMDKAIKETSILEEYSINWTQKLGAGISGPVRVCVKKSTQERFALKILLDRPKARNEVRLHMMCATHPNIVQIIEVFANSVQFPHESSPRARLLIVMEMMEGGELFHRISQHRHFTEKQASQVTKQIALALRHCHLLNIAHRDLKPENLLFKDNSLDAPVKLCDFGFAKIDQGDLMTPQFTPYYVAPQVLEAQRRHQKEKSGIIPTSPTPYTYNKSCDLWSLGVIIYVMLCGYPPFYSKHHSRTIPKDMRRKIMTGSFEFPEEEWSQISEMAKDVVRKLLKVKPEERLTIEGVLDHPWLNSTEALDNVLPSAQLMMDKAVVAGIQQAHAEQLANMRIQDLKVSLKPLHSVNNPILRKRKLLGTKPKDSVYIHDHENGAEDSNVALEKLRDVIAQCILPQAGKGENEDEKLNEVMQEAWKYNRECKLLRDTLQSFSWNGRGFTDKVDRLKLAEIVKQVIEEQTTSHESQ

[2] = target: T2, Tyrosine--tRNA ligase, cytoplasmic (Homo sapiens, UniProt P54577)
T2 sequence (P54577 whole entry): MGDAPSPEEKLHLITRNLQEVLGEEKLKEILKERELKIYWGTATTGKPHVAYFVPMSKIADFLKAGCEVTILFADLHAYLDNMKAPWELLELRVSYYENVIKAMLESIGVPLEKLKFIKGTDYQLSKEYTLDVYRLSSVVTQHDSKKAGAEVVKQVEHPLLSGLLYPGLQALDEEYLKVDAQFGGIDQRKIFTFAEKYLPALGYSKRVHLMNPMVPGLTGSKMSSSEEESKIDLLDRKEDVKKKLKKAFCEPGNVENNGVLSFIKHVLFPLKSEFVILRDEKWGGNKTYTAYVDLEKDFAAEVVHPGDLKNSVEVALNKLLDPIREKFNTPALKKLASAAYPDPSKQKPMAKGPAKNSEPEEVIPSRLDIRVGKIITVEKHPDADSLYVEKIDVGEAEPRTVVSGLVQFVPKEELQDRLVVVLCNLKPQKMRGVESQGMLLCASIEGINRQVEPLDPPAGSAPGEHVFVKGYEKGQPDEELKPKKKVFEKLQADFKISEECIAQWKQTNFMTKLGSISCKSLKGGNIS

Ephrin type-A receptor 5 = Ephrin type-A receptor 5 (Homo sapiens, UniProt P54756)
Sequence of Ephrin type-A receptor 5 (P54756 whole entry): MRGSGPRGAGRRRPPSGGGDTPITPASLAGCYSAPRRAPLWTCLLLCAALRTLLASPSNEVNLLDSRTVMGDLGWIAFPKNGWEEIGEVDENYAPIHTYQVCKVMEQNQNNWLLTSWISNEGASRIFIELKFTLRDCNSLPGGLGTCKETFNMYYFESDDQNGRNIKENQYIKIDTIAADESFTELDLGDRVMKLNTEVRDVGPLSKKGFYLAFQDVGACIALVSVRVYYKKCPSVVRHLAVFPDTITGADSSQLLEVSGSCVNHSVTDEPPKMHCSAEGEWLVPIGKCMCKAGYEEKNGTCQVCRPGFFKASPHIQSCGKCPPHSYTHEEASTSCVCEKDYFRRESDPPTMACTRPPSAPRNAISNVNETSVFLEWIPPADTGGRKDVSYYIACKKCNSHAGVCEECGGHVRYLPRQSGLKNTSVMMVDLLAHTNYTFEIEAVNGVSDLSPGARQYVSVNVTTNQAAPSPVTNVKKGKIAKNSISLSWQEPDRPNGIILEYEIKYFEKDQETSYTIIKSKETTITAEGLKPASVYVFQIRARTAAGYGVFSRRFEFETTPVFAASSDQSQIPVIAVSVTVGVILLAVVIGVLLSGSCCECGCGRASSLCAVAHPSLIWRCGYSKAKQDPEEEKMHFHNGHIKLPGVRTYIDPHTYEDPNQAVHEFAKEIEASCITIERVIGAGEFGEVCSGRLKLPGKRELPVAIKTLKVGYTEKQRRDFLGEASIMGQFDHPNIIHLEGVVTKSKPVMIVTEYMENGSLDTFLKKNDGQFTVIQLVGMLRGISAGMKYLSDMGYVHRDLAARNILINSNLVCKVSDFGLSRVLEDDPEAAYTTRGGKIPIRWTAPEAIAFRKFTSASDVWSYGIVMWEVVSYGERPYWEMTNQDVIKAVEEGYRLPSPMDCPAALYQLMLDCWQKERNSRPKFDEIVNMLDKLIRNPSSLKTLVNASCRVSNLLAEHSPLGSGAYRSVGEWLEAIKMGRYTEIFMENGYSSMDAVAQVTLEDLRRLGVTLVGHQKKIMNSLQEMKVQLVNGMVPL

[3] = target: Dual specificity tyrosine-phosphorylation-regulated kinase 1A (Homo sapiens, UniProt Q13627)
TGF-beta receptor type-1 = target: T3, TGF-beta receptor type-1 (Homo sapiens, UniProt P36897)
T3 sequence (P36897 whole entry): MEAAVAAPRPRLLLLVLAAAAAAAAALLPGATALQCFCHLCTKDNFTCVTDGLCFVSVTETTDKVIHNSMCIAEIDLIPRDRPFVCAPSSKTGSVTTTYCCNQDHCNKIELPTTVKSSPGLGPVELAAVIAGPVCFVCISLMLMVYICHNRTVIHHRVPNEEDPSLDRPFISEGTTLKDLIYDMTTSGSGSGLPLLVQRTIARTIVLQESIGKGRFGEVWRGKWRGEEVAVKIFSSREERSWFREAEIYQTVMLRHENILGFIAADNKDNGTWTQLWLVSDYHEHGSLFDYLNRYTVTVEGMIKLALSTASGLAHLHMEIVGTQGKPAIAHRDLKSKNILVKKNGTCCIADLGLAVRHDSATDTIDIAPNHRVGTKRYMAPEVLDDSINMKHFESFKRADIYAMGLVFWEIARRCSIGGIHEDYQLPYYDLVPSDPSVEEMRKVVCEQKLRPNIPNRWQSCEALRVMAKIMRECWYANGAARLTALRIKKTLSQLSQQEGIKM

[4] = target: Cyclin-dependent kinase 12 (Homo sapiens, UniProt Q9NYV4)
Sequence of Cyclin-dependent kinase 12 (Q9NYV4 whole entry): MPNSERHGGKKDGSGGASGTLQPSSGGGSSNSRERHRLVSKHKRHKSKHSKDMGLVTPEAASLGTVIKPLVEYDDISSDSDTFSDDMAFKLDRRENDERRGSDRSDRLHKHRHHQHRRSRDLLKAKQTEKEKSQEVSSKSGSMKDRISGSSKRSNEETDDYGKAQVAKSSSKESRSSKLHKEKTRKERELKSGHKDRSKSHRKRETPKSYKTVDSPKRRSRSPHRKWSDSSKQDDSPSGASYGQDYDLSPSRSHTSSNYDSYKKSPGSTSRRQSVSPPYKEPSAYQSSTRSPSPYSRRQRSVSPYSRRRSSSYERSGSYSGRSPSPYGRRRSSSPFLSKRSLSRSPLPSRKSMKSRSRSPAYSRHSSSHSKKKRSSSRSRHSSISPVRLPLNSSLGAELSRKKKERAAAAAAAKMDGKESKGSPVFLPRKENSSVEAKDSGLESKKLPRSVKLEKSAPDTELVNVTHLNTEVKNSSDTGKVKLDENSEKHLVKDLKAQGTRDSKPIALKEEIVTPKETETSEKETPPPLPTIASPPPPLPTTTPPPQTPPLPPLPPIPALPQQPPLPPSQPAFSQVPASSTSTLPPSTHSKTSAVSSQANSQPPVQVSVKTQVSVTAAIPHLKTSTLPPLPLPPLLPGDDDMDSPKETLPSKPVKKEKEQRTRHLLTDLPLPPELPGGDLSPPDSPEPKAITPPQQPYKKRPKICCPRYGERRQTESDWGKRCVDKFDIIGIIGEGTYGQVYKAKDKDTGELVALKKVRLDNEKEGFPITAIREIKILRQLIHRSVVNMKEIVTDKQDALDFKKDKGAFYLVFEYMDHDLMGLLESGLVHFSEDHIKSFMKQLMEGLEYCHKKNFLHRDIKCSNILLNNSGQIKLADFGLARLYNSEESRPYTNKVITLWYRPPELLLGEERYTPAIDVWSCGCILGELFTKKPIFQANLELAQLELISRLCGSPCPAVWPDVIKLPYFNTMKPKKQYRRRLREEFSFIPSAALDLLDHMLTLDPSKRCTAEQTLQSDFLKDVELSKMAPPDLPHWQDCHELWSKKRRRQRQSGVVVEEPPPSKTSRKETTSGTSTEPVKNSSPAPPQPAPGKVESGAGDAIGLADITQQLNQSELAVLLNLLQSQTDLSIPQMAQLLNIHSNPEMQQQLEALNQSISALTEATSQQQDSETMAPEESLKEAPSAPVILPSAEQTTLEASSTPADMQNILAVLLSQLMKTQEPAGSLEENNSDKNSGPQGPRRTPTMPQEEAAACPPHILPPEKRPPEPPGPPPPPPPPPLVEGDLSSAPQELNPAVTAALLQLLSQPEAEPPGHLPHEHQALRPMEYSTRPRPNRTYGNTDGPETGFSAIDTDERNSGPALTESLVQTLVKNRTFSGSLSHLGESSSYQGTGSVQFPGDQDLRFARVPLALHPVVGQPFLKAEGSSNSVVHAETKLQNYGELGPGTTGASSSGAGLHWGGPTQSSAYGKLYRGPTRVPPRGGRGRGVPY

[5] = target: T4, Serine/threonine-protein kinase D2 (Homo sapiens, UniProt Q9BZL6)
T4 sequence (Q9BZL6 whole entry): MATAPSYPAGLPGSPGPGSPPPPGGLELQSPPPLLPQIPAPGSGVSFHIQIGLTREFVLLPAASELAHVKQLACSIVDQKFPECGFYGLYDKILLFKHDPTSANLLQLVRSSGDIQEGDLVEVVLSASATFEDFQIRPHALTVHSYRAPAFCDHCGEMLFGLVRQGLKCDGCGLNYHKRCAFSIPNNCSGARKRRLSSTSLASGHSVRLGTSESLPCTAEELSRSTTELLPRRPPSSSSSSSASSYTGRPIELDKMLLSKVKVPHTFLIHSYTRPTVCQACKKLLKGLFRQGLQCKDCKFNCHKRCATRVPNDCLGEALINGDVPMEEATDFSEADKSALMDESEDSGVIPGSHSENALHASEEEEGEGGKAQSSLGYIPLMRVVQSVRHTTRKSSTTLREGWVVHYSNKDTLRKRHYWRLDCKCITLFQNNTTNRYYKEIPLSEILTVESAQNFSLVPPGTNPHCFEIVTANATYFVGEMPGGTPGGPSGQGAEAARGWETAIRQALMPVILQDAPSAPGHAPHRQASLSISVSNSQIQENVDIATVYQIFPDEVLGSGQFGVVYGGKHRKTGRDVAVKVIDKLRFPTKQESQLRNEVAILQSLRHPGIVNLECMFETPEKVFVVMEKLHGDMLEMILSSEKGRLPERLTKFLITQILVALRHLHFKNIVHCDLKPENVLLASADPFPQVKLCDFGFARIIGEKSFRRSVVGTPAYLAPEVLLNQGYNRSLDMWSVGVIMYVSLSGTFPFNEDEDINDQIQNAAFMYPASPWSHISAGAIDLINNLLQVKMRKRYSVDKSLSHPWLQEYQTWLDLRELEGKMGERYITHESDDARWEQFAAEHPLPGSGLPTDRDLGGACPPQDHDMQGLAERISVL

[6] = target: Ribosomal protein S6 kinase alpha-1 (Homo sapiens, UniProt Q15418)
Sequence of Ribosomal protein S6 kinase alpha-1 (Q15418 whole entry): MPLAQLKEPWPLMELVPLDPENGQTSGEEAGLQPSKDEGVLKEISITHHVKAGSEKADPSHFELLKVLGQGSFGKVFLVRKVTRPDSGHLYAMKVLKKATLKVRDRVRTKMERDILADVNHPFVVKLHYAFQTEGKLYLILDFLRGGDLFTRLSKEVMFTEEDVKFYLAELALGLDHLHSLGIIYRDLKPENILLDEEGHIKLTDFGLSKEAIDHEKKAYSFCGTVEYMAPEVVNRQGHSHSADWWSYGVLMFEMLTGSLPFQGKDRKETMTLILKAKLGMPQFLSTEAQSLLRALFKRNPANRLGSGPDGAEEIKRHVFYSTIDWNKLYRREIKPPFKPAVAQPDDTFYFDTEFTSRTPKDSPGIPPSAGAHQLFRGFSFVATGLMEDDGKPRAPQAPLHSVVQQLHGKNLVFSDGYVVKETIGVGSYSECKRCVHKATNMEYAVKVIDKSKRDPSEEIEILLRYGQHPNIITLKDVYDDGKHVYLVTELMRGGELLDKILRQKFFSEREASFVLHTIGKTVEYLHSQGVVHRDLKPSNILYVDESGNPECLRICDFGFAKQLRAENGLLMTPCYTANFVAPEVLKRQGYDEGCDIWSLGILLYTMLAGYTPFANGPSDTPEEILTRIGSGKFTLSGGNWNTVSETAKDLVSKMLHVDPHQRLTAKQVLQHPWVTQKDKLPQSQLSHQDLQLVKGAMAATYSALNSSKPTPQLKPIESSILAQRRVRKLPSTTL

[7] = target: Serine/threonine-protein kinase/endoribonuclease IRE2 (Homo sapiens, UniProt Q76MJ5)
Sequence of Serine/threonine-protein kinase/endoribonuclease IRE2 (Q76MJ5 whole entry): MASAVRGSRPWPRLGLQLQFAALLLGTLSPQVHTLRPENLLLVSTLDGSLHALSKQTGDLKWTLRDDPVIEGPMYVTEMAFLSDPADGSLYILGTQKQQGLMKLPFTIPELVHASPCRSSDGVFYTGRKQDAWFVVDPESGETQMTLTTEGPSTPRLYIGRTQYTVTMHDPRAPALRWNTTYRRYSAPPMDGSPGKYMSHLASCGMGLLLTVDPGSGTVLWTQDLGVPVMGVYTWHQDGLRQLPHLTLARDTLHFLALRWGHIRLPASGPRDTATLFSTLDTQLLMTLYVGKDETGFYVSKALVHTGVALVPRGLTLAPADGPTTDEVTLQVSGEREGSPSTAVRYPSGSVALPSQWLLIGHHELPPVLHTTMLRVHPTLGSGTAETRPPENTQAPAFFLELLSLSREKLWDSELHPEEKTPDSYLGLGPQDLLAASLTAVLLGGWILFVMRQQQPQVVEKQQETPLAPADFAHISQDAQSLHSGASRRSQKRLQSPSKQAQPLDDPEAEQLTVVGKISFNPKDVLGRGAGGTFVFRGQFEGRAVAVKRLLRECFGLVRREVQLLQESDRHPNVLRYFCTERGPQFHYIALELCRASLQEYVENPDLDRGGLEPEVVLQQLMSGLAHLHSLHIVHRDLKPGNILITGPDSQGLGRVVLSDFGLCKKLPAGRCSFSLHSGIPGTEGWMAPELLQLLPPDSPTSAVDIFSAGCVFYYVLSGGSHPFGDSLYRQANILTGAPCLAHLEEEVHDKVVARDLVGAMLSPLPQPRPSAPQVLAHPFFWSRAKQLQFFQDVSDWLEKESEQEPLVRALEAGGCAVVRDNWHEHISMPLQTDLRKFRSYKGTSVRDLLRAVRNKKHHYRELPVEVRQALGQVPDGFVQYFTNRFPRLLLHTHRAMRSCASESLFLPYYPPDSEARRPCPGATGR

[8] = target: Mitogen-activated protein kinase kinase kinase kinase 1 (Homo sapiens, UniProt Q92918)
Sequence of Mitogen-activated protein kinase kinase kinase kinase 1 (Q92918 whole entry): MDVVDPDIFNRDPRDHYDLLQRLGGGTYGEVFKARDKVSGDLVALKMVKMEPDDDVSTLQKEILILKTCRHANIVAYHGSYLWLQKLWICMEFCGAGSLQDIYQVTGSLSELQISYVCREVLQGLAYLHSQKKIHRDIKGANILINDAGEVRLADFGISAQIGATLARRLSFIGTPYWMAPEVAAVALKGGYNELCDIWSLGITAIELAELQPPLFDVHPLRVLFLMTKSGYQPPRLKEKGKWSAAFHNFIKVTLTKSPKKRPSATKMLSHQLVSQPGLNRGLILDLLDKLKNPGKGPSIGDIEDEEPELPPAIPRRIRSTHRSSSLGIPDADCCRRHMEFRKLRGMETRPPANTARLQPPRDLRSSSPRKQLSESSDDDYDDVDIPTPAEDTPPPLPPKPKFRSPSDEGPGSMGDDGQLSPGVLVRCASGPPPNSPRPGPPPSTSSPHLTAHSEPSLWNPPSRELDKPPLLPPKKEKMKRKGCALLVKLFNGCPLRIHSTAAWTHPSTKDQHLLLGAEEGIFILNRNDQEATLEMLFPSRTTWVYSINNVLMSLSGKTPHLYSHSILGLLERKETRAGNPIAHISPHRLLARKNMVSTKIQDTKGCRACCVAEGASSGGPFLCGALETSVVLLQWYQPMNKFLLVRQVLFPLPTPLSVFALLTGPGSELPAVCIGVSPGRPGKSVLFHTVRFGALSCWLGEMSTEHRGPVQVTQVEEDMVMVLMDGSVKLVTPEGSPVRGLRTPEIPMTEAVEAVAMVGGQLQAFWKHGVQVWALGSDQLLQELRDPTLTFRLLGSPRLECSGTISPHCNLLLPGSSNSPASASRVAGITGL

| Kd [1] | Kd [2] | Kd (Ephrin type-A receptor 5) | Kd [3] | Kd (TGF-beta receptor type-1) | Kd [4] | Kd [5] | Kd [6] | Kd [7] | Kd [8] | SMILES |
| --- | --- | --- | --- | --- | --- | --- | --- | --- | --- | --- |
| > 30 µM (inactive) | > 30 µM (inactive) | > 30 µM (inactive) | > 30 µM (inactive) | > 30 µM (inactive) | > 30 µM (inactive) | > 30 µM (inactive) | > 30 µM (inactive) | 1.5 µM | > 30 µM (inactive) | C[C@@H](Nc1cc(F)cc(F)c1)c1cc(C(=O)N(C)C)cc2c(=O)cc(N3CCOCC3)oc12 [AZD-8186] |
| > 30 µM (inactive) | > 30 µM (inactive) | > 30 µM (inactive) | > 30 µM (inactive) | > 30 µM (inactive) | > 30 µM (inactive) | > 30 µM (inactive) | > 30 µM (inactive) | > 30 µM (inactive) | > 30 µM (inactive) | Cc1cc([C@@H](C)Nc2ccccc2C(=O)O)c2nc(N3CCOCC3)cc(=O)n2c1 [AZD-6482] |
| > 30 µM (inactive) | > 30 µM (inactive) | > 30 µM (inactive) | > 30 µM (inactive) | > 30 µM (inactive) | > 30 µM (inactive) | > 30 µM (inactive) | > 30 µM (inactive) | > 30 µM (inactive) | > 30 µM (inactive) | CCS(=O)(=O)N1CC(CC#N)(n2cc(-c3ncnc4[nH]ccc34)cn2)C1 [BARICITINIB] |
| > 30 µM (inactive) | > 30 µM (inactive) | > 30 µM (inactive) | > 30 µM (inactive) | > 30 µM (inactive) | > 30 µM (inactive) | > 30 µM (inactive) | > 30 µM (inactive) | > 30 µM (inactive) | > 30 µM (inactive) | CN1N=C(N)c2cn([C@@H]3O[C@H](COP(=O)(O)O)[C@@H](O)[C@H]3O)c3ncnc1c23 [TRICIRIBINE PHOSPHATE] |
| > 30 µM (inactive) | > 30 µM (inactive) | 1.12 µM | > 30 µM (inactive) | > 30 µM (inactive) | > 30 µM (inactive) | > 30 µM (inactive) | > 30 µM (inactive) | > 30 µM (inactive) | > 30 µM (inactive) | CNC(=O)c1cc(Oc2ccc(NC(=O)Nc3ccc(Cl)c(C(F)(F)F)c3)c(F)c2)ccn1 [REGORAFENIB] |
| > 30 µM (inactive) | > 30 µM (inactive) | > 30 µM (inactive) | > 30 µM (inactive) | > 30 µM (inactive) | > 30 µM (inactive) | 66.9 µM (active) | > 30 µM (inactive) | > 30 µM (inactive) | > 30 µM (inactive) | O=C(Nc1ccc(-c2ccnc(Nc3ccc(N4CCOCC4)cc3)n2)cc1)C1CCCN1 (stereo not given) [XL-019] |
| > 30 µM (inactive) | > 30 µM (inactive) | > 30 µM (inactive) | > 30 µM (inactive) | > 30 µM (inactive) | > 30 µM (inactive) | > 30 µM (inactive) | > 30 µM (inactive) | > 30 µM (inactive) | > 30 µM (inactive) | CCCS(=O)(=O)Nc1ccc(F)c(C(=O)c2c[nH]c3ncc(-c4ccc(Cl)cc4)cc23)c1F [VEMURAFENIB] |
| > 30 µM (inactive) | > 30 µM (inactive) | > 30 µM (inactive) | > 30 µM (inactive) | > 30 µM (inactive) | > 30 µM (inactive) | > 30 µM (inactive) | > 30 µM (inactive) | > 30 µM (inactive) | > 30 µM (inactive) | Cc1ccc(S(=O)(=O)Nc2nc3ccccc3nc2Nc2ccc3nsnc3c2)cc1 |
| > 30 µM (inactive) | > 30 µM (inactive) | > 30 µM (inactive) | > 30 µM (inactive) | > 30 µM (inactive) | > 30 µM (inactive) | > 30 µM (inactive) | > 30 µM (inactive) | > 30 µM (inactive) | > 30 µM (inactive) | Cc1c(F)cc(C(=O)NC2CC2)cc1-c1ccc(C(=O)NCC(C)(C)C)cn1 [LOSMAPIMOD] |
| > 30 µM (inactive) | > 30 µM (inactive) | > 30 µM (inactive) | > 30 µM (inactive) | > 30 µM (inactive) | > 30 µM (inactive) | 2.67 µM (active) | > 30 µM (inactive) | > 30 µM (inactive) | > 30 µM (inactive) | COc1cc(N2CCC(N3CCN(C)CC3)CC2)ccc1Nc1ncnc(Nc2ccccc2S(=O)(=O)C(C)C)n1 [ASP-3026] |
| > 30 µM (inactive) | > 30 µM (inactive) | > 30 µM (inactive) | > 30 µM (inactive) | > 30 µM (inactive) | > 30 µM (inactive) | > 30 µM (inactive) | > 30 µM (inactive) | > 30 µM (inactive) | > 30 µM (inactive) | CCn1c(=O)c(-c2cc[nH]n2)cc2c(C)nc(N)nc21 [VOXTALISIB] |
| > 30 µM (inactive) | > 30 µM (inactive) | > 30 µM (inactive) | > 30 µM (inactive) | > 30 µM (inactive) | > 30 µM (inactive) | > 30 µM (inactive) | > 30 µM (inactive) | > 30 µM (inactive) | > 30 µM (inactive) | CC(=O)Nc1cccc(-n2c(=O)n(C3CC3)c(=O)c3c(Nc4ccc(I)cc4F)n(C)c(=O)c(C)c32)c1 [TRAMETINIB] |
| > 30 µM (inactive) | > 30 µM (inactive) | > 30 µM (inactive) | > 30 µM (inactive) | > 30 µM (inactive) | > 30 µM (inactive) | > 30 µM (inactive) | > 30 µM (inactive) | > 30 µM (inactive) | > 30 µM (inactive) | CCN1CCN(Cc2ccc(-c3cc4c(N[C@H](C)c5ccccc5)ncnc4[nH]3)cc2)CC1 [AEE-788] |

| SMILES | Kd [1] | Kd [2] | Kd (Ephrin type-A receptor 5) | Kd [3] | Kd (TGF-beta receptor type-1) | Kd [4] | Kd [5] | Kd [6] | Kd [7] | Kd [8] |
| --- | --- | --- | --- | --- | --- | --- | --- | --- | --- | --- |
| C=CC(=O)N1CCC(Oc2cc3c(Nc4ccc(Cl)c(Cl)c4F)ncnc3cc2OC)CC1 [POZIOTINIB] | > 30 µM (inactive) | > 30 µM (inactive) | > 30 µM (inactive) | > 30 µM (inactive) | > 30 µM (inactive) | > 30 µM (inactive) | > 30 µM (inactive) | > 30 µM (inactive) | > 30 µM (inactive) | > 30 µM (inactive) |

Reference: ChEMBL document CHEMBL3991601, “The target landscape of clinical kinase drugs” (Science, 2017)
